Values of other authors, collected in patent publication US20170231227A1, “ANTIFUNGAL-GRAFTED POLYOLEFIN” (priority 2016, published 2017).

**Q.** For C[C@@H]1C/C=C/C=C/C=C/C=C/[C@H](O[C@@H]2O[C@H](C)[C@@H](O)[C@H](N)[C@@H]2O)C[C@@H]2O[C@](O)(C[C@@H](O)C[C@H]3O[C@@H]3/C=C/C(=O)O1)C[C@H](O)[C@H]2C(=O)O [Natamycin, natamycin], which solubility in ethanol (pure ethanol) is on record?
**A.** The solubility in ethanol was 40 ppm.

**Q.** What about the solubility in water (water) of the same compound?
**A.** The solubility in water was “poor”.
